Read-outs that look alike come from different tables or passages of the source.
Experiments:
[1] = tested on: female CF1 S mice; assay: Mouse spontaneous motor activity (activity cage); assay type: in vivo, mouse (CF1 S female); settings: 0.5 h, Table 1, oral, mice, 30 minutes after dosing, read-out: Exploratory Loss Activity Cage ED50
Method: Mouse Spontaneous Motor Activity (Activity Cage)
Twenty-four per dose, 16- 20 g or 18-22 g, female CF1 S mice, fasted 16- 22 hours, are intubated (in pairs) with drug at t doses such as 0, 1, 3, 9, 27 and 81 mg/kg in 10 ml/kg of aqueous 1% methylcellulose. The mice are then put in separate "shoe-box" cages (12 × 7.5 × 5.3 inches plastic with a 0.33 inch mesh stainless steel lid), and 20 minutes after intubation the animals in pairs are moved to covered Woodard Photoelectric Activity Chambers (central light source type measurement floor area = 96 in^2). Ten minutes later (30 minutes after dosing) a 5-minute count is taken. Counting chamber characteristics are balanced out by counting 2 pairs of mice from each dose level in each of 6 different counting chambers. Half of each test is run in the a.m. and the other half is run in the p.m. to minimize "biological clock" variations.
Canad. Biol. 20, 239-50 (1961), raw counts are thus transformed for statistical treatment (Student's t test). The means of the square roots then are squared and an ED50 for stimulation or depression (or both) is determined graphically.

[2] = tested on: phenylquinone-induced writhing; assay: Phenylquinone writhing test (analgesia); assay type: in vivo, mouse (Carworth CF1 S female); settings: Mus musculus, po, Table 1, mice
From the text: This mouse test is predictive of analgesic response in humans. [E. Siegmund, R. Cadmus and G. Lee, Proc. Soc.
ED50 values were obtained graphically from the data.

[3] = tested on: Holzman male white rats; assay: Rat approach-avoidance test (anti-anxiety); assay type: in vivo, rat (Holzman male white); settings: for No. of Responders / ED50: 4 hrs; for ED50: Rattus norvegicus, Table II, oral, rats, read-out: ED50; for anti-anxiety activity: in words
Method: Potential as anti-anxiety agents was assessed by means of the potency of these compounds in the rat approach-avoidance test.
Approach-Avoidance Test Method
18 hr. waterdeprived Holzman male white rats, 150-175 g each, were used. The apparatus consists of two interconnected chambers, the first in which the animal is placed, and a second which contains the stimulus and a water bottle. The second is fitted with an electrifiable floor. On the first day, the rats are placed in the first chamber. They are allowed three minutes to find the water bottle in the second chamber and to drink water for at least two seconds. After three successful trials on the first day the animals are given one predrug trial on the second day. Then follows a second predrug trial during which the floor of the second chamber is electrified 1.5 seconds after the rat has commenced drinking water. The animals are randomized, dosed orally, and reexposed to the test situation at 1, 2, or 4 hours after the shock trial.

[4] = tested on: female white mice; assay: animal or person; settings: Mus musculus, po
[5] = in vivo; settings: mouse, in vivo, po
[6] = read-out: Catatonia ED50, Table 1, oral, mice
[7] = read-out: Exploratory Loss Visual ED50, Table 1, oral, mice
[8] = read-out: Muscle Tone ED50, Table 1, oral, mice
[9] = read-out: Ptosis ED50, Table 1, Extrapolated value
[10] = read-out: Reflexes Lift ED50, Table 1, oral, mice
[11] = read-out: Reflexes Pinna ED50, Table 1, oral, mice

Row | Compound | ED50 [1] [mg/kg] | ED50 [2] [mg/kg] | No. of Responders ([3]; 0.03 mg/kg oral, N=10 rats) | No. of Responders ([3]; 0.1 mg/kg oral, N=20 rats) | No. of Responders ([3]; 0.3 mg/kg oral, N=10 rats) | ED50 [3] [mg/kg] | anti-anxiety activity [3] | ED50 [4, 6] [mg/kg] | ED50 [4, 7] [mg/kg] | ED50 [4, 8] [mg/kg] | ED50 [4, 9] [mg/kg] | ED50 ([4]; read-out: Reflexes Grip ED50, Table 1, oral, mice) [mg/kg] | ED50 [4, 10] [mg/kg] | ED50 [4, 11] [mg/kg] | ED50 [5] [mg/kg] | LD50 at 24 h [5] [mg/kg] | No. of Responders ([3]; 0.1 mg/kg oral, N=10 rats) | No. of Responders ([3]; 1.0 mg/kg oral, N=8 rats) | ED50 ([4]; read-out: Reflexes Grip ED50, Table 1, Extrapolated value) [mg/kg]
1 | c1ccc2c(c1)C1CC3(CN(CC4CCCC4)CC23)c2ccccc21 (centres unmarked) [Example 7, 2-Cyclopentylmethyl-2,3,8,12b-tetrahydro-1H-3a,8-methanodibenzo[3,4:6,7]cyclohepta[1,2-c]pyrrole] | 0.66 | 2 | 1 | 7 | 6 | 0.2 | potent anti-anxiety or minor tranquilizer activity | 8 | 7 | 7 | 3 | 210 | 11 | 9 | > 324 | > 324 |  |  | 
2 | c1ccc2c(c1)C1CC3(CN(CC4CCCCC4)CC23)c2ccccc21 (centres unmarked) [Example 25, 2-Cyclohexylmethyl-2,3,8,12b-tetrahydro-1H-3a,8-methanodibenzo[3,4:6,7]cyclohepta[1,2-c]pyrrole] | 4.7 | 6.4 |  |  | 2 | 0.5 | potent anti-anxiety or minor tranquilizer activity | 9 | 9 | 8 | 3 |  | 8 | 7 | 450 | 320 | 1 | 5 | 450

Source: patent US4088772A, “Methanodibenzocycloheptapyrroles” (E. I. Du Pont de Nemours and Company, priority 1975, dated 1978)
